According to paper PMC12092823 (Scientific Reports, 2025):
One block for each compound: values may come before it.

Legend:
α-glucosidase [1] = test: In vitro α-glucosidase inhibition assay; type: biochemical, yeast; conditions: for anti-α-glucosidase activity in words: in comparison to acarbose or compound 14b; for folds more active than acarbose against α-glucosidase: versus acarbose
α-glucosidase [2] = test: Kinetic study; type: biochemical, yeast; conditions: Lineweaver–Burk plots

SMILES: Cc1cc([N+](=O)[O-])ccc1NC(=O)Cn1cc(CNC(=O)c2cc3c([nH]c4ccccc43)c(-c3ccc(Cl)cc3)n2)nn1 [14 L, 1-(4-chlorophenyl)-N-((1-(2-((2-methyl-4-nitrophenyl)amino)-2-oxoethyl)-1 H-1,2,3-triazol-4-yl)methyl)-9 H-pyrido[3,4-b]indole-3-carboxamide]
anti-α-glucosidase activity in words (α-glucosidase [1]): good

SMILES: O=C(Cn1cc(CNC(=O)c2cc3c([nH]c4ccccc43)c(-c3ccc(Cl)cc3)n2)nn1)Nc1ccccc1F [14 m, 1-(4-chlorophenyl)-N-((1-(2-((2-fluorophenyl)amino)-2-oxoethyl)-1 H-1,2,3-triazol-4-yl)methyl)-9 H-pyrido[3,4-b]indole-3-carboxamide]
folds more active than acarbose against α-glucosidase (α-glucosidase [1]): around 5 folds

SMILES: Cc1cc([N+](=O)[O-])ccc1NC(=O)Cn1cc(CNC(=O)c2cc3c([nH]c4ccccc43)c(-c3ccccc3)n2)nn1 [Compound 14c, N-((1-(2-((2-methyl-4-nitrophenyl)amino)-2-oxoethyl)-1 H-1,2,3-triazol-4-yl)methyl)-1-phenyl-9 H-pyrido[3,4-b]indole-3-carboxamide]
decrease of anti-α-glucosidase activity relative to compound 14b (α-glucosidase [1]; versus compound 14b): 10 folds

SMILES: Cc1ccccc1NC(=O)Cn1cc(CNC(=O)c2cc3c([nH]c4ccccc43)c(-c3ccccc3)n2)nn1 [Compound 14b, N-((1-(2-oxo-2-(o-tolylamino)ethyl)-1 H-1,2,3-triazol-4-yl)methyl)-1-phenyl-9 H-pyrido[3,4-b]indole-3-carboxamide]
effect of increasing inhibitor concentration on Km and Vmax (α-glucosidase [2]): decrease in Km and Vmax
type of α-glucosidase inhibition (α-glucosidase [2]): uncompetitive
anti-α-glucosidase activity in words (α-glucosidase [1]): significant

Now from value to compound:

inhibitory activity diminished relative to compound 14 L (α-glucosidase [1]; versus compound 14 L): 3 folds
SMILES: Cc1ccccc1NC(=O)Cn1cc(CNC(=O)c2cc3c([nH]c4ccccc43)c(-c3ccc(Cl)cc3)n2)nn1 [Compound 14k, 1-(4-chlorophenyl)-N-((1-(2-oxo-2-(o-tolylamino)ethyl)-1 H-1,2,3-triazol-4-yl)methyl)-9 H-pyrido[3,4-b]indole-3-carboxamide]

anti-α-glucosidase activity in words (α-glucosidase [1]): moderate
SMILES: COc1ccc(NC(=O)Cn2cc(CNC(=O)c3cc4c([nH]c5ccccc54)c(-c4ccccc4)n3)nn2)c([N+](=O)[O-])c1 [Compound 14e, N-((1-(2-((4-methoxy-2-nitrophenyl)amino)-2-oxoethyl)-1 H-1,2,3-triazol-4-yl)methyl)-1-phenyl-9 H-pyrido[3,4-b]indole-3-carboxamide]

anti-α-glucosidase activity in words (α-glucosidase [1]): good
SMILES: O=C(Cn1cc(CNC(=O)c2cc3c([nH]c4ccccc43)c(-c3ccc(Cl)cc3)n2)nn1)Nc1cccc(Cl)c1 [Compound 14n, 1-(4-chlorophenyl)-N-((1-(2-((3-chlorophenyl)amino)-2-oxoethyl)-1 H-1,2,3-triazol-4-yl)methyl)-9 H-pyrido[3,4-b]indole-3-carboxamide]

folds more active than acarbose against α-glucosidase (α-glucosidase [1]): around 5 folds
SMILES: O=C(Cn1cc(CNC(=O)c2cc3c([nH]c4ccccc43)c(-c3ccc(Cl)cc3)n2)nn1)Nc1ccccc1 [Compound 14j, 1-(4-chlorophenyl)-N-((1-(2-oxo-2-(phenylamino)ethyl)-1 H-1,2,3-triazol-4-yl)methyl)-9 H-pyrido[3,4-b]indole-3-carboxamide]

anti-α-glucosidase activity in words (α-glucosidase [1]): significant inhibitor
SMILES: COc1ccc(-c2nc(C(=O)NCc3cn(CC(=O)Nc4cccc(Cl)c4)nn3)cc3c2[nH]c2ccccc23)cc1 [Compound 14i, N-((1-(2-((3-chlorophenyl)amino)-2-oxoethyl)-1 H-1,2,3-triazol-4-yl)methyl)-1-(4-methoxyphenyl)-9 H-pyrido[3,4-b]indole-3-carboxamide]
